The source of these data is US20250129329A1, “CULTURE MEDIUM FOR HEPATOMA ORGANOID CULTURE, HEPATOMA ORGANOID CULTURE METHOD, AND APPLICATION THEREOF” (PRECEDO PHARMACEUTICALS CO., LTD, priority 2021, published 2025).

Holding throughout (assay type): cell-based, human
Assay [1] relates to hepatoma organoids (samples GL-003, GL-004). In words: Effects of different concentrations of factors in the culture medium on proliferation of hepatoma organoids (Example 2). The following applies: added to HC-3 medium lacking that factor; organoid diameter ratio to Blank Control after 10 days, FIGS. 1A-1K. The method, then: Primary liver cancer cells were obtained from intraoperative tissue samples (Nos. GL-003, GL-004) in accordance with the method described in Section (2), Example 1, and the organoids were cultured using the culture medium formulations as shown in Table 2 below.
When using the culture medium of Formulation 1, to a 96-well plate inoculated with organoids was added the prepared B27 in addition to the medium of Formulation 1, with 200 μL per well, such that the final concentrations of B27 were 1:25, 1:50 and 1:100, respectively; a well of Blank Control (BC) was set using the medium of Formulation 1. The final concentrations of other factors added in this series of culture mediums were the same as those in HC-3 culture medium. The experiments of Formulations 1-11 below were also conducted in the same way and will not be described in details.
When using the culture medium of Formulation 2, to a 96-well plate inoculated with organoids was added the prepared HGF in addition to the medium of Formulation 2, with 200 μL per well, such that the final concentrations of HGF were 1 ng/ml, 5 ng/mL and 25 ng/mL, respectively; a well of Blank Control (BC) was set using the medium of Formulation 2.
When using the culture medium of Formulation 3, to a 96-well plate inoculated with organoids was added the prepared ITS cell culture additive in addition to the medium of Formulation 3, with 200 μL per well, such that the final concentrations of ITS cell culture additive were 1:300, 1:100 and 1:30, respectively; a well of Blank Control (BC) was set using the medium of Formulation 3.
When using the culture medium of Formulation 4, to a 96-well plate inoculated with organoids was added the prepared Y27632 in addition to the medium of Formulation 4, with 200 μL per well, such that the final concentrations of Y27632 were 3 μM, 10 μM and 30 μM, respectively; a well of Blank Control (BC) was set using the medium of Formulation 4.
When using the culture medium of Formulation 6, to a 96-well plate inoculated with organoids was added the prepared NRG1 in addition to the medium of Formulation 6, with 200 μL per well, such that the final concentrations of NRG1 were 1 ng/ml, 5 ng/ml and 25 ng/ml, respectively; a well of Blank Control (BC) was set using the medium of Formulation 6.
When using the culture medium of Formulation 7, to a 96-well plate inoculated with organoids was added the prepared insulin in addition to the medium of Formulation 7, with 200 µL per well, such that the final concentrations of insulin were 1 μg/mL, 3 μg/mL and 10 μg/mL, respectively; a well of Blank Control (BC) was set using the medium of Formulation 7.
When using the culture medium of Formulation 8, to a 96-well plate inoculated with organoids was added the prepared EGF in addition to the medium of Formulation 8, with 200 μL per well, such that the final concentrations of EGF were 2 ng/ml, 6 ng/ml and 18 ng/ml, respectively; a well of Blank Control (BC) was set using the medium of Formulation 8.
When using the culture medium of Formulation 9, to a 96-well plate inoculated with organoids was added the prepared GlutaMAX in addition to the medium of Formulation 9, with 200 μL per well, such that the final concentrations of GlutaMAX were 1:300, 1:100 and 1:30, respectively; a well of Blank Control (BC) was set using the medium of Formulation 9. […]

Assay [2] concerns hepatoma organoids isolated from liver cancer tissue. Description: Effects of medium additives on proliferation of hepatoma organoids (Example 1). The following applies: additive in basic medium at the final concentration; organoid diameters after 7 days compared with Basic Medium. The procedure: First, a basic medium containing initial medium was prepared. […] In this embodiment, the formulation of the basic medium is: DMEM/F12 medium (purchased from Corning)+100 μg/mL Primocin (purchased from InvivoGen, 0.2% (v/v), commercial product has a concentration of 50 mg/ml).
Different types of additives (see Table 1) were added to the basic medium to prepare culture mediums for hepatoma organoid with different components.
Tissue samples (intraoperative) of liver cancer solid tumor were obtained from patients by professional medical practitioner of professional medical institutions, and all patients have signed the informed consent. Intraoperative samples having the size of 0.25 cm3 were stored and transported using commercial tissue preservation solution (manufacturer: Miltenyi Biotec).
• 3.1. Tissue samples were transferred from the ultra-clean workbench to a culture dish, and the tissue with blood was removed. The tissue samples were rinsed twice with basic medium, and then were transferred to another culture dish and mechanically cut with a sterile scalpel into tissue blocks of 1×1×1 mm3 in size. • 3.2. The cut intraoperative tissues were aspirated into a 15 mL centrifuge tube, to which 5 mL of basic medium was added, fully mixed, and then centrifuged at 1500 rpm for 4 minutes. • 3.3. The supernatant was discarded, and the resultant was added with 1:3 mixture of basic medium and tissue digestion solution (the amount of tissue digestion solution added was about 10 mL tissue digestion solution for 1 g of tumor tissue). The samples were marked with names and numbers, sealed with sealing film, and then digested in a shaker (Zhichu Instrument ZQLY-180N) at 37° C., 300 rpm. The completion of digestion was determined via observation every 30 minutes, based on the existing of visible particles or not. • 3.4. After the digestion was completed, undigested tissue mass was filtered out through a […] filter mash. The tissue mass on the filter mash was rinsed into the centrifuge tube with basic medium to reduce cell loss. The resultant was centrifuged at 25° C., 1500 rpm for 4 minutes. • 3.5. […] If there were blood cells, 8 mL blood cell lysate (purchased from Sigma) was added in the resultant and fully mixed, lysed at 4° C. for 20 minutes, with inverting and mixing once during the process. The resultant was centrifuged at 25° C., 1500 rpm for 4 minutes. • 3.6. The supernatant was discarded and 2 mL basic medium was added to resuspend the cells for reserve.
• 4.1 Microscopic observation: a small amount of resuspended cells were plated in a culture dish, and the density and morphology of cancer cells were observed under a microscope (CNOPTEC, BDS400); • 4.2 Viable cell counting: 12 μL of the resuspended cell suspension was fully mixed with 12 μL of trypan blue staining solution (Manufacturer: Sangon Biotech (Shanghai) Co., Ltd.), and then 20 μL of the mixture was added into a cell counting plate (Manufacturer: Countstar, specifications: 50 pieces/box).
The primary liver cancer cells obtained in the above steps were resuspended with pre-cooled DMEM/F12 and counted. The cell density was diluted to 5-10×10^6 cells/mL and 400 μL of the diluted cell suspension was added with an equal volume of Matrigel matrix gel (Corning) and mixed gently and well. Then, the mixture was inoculated at 5 μL/well onto a 96-well plate. The inoculated plate was placed into an incubator for 30 minutes until Matrigel is completely coagulated. Then, the culture mediums as shown in Table 1 that have been come to room temperature in advance were added, respectively, and the culture mediums were renewed every three days for expansion and cultivation. After 7 days, the cultured organoids were photographed and the diameters of the organoids were measured and compiled, so as to compare the promoting effects of various factors on the proliferation of hepatoma organoids. As the experimental control, the basic medium without any additives was used.

Assay [3] has as its system hepatoma organoids (sample GL-006). In words: Drug screening on hepatoma organoids, CellTiter-Glo viability and microscopy (Example 5). The note with it: for inhibitory effect on the growth of hepatoma organoids (drug inhibition rate): two concentrations (1 and 0.1 mM stocks diluted 1000 times), 5 days, CellTiter-Glo, FIG. 5B; for growth of organoids after drug treatment (photos): after 5 days of drug treatment, microscope photos, FIG. 5A. The procedure: Primary liver cancer cells were isolated from liver cancer intraoperative sample (GL-006) according to the method described in Section (2), Example 1, and were cultured to obtain organoids by using HC-3 culture medium until the diameters of hepatoma organoids exceeded 50 μm, which were then used for drug screening.
Prepare Three drugs with two concentration gradients were prepared according to the table below (Bortezomib, Aclarubicin, and Doxorubicin; all purchased from MCE) and store for use.
The prepared drugs were taken out and placed at room temperature. The drugs were diluted 1000 times with HC-3 culture medium for later use. The organoids cultured and obtained according to step (1) were taken out from the incubator, the culture mediums were removed from the wells, and the culture mediums containing drugs were slowly added into the wells along the well wall. After the addition of drug, disinfect the surface of the 96-well plate was sterilized and then was transferred to the incubator for further cultivation. After 5 days, the viability of organoids were measured.
CellTiter-Glo luminescent reagent (purchased from Promega) was taken out from a 4° C. refrigerator, and 10 mL of the reagent was added into the loading slot; the 96-well plate for testing was taken out from the incubator, and 20 μL CellTiter-Glo luminescent reagent was added into each well. After standing for 10 minutes followed by mixing well, the test was conducted by using a multi-functional microplate reader (Envision, Perkin Elmer).

Consider “epidermal growth factor, EGF: growth factor medium additive, supplier R&D (NSDSECPLSHDGYCLHDGVCMYIEALDKYACNCVVGYIGERCQYRDLKWWELR; Epidermal growth factor; UniProt P01133 971-1023, looked up)”, for which the “preferable amount in the culture medium for promoting organoid proliferation” value (shortened to “preferable amount in the culture medium”) in assay [1] lay within 2 to 18 ng/mL. For the same molecule, the “Level of promoting proliferation” value in assay [2] is “+”.

On to `Cc1cccc(-c2nn(C(=S)Nc3ccccc3)cc2-c2ccnc3ccccc23)n1` [Compound A8301], for which the “Level of promoting proliferation” value in assay [2] was “−”. Take `COc1cccc2c1C(=O)c1c(O)c3c(c(O)c1C2=O)C[C@@](O)(C(=O)CO)C[C@@H]3O[C@H]1C[C@H](N)[C@H](O)[C@H](C)O1` [Doxorubicin]: the “inhibitory effect on the growth of hepatoma organoids (drug inhibition rate)” value (shortened to “inhibitory effect on the growth”) in assay [3] is “no inhibitory effect”. For the molecule `C[C@@H](N)[C@H]1CC[C@H](C(=O)Nc2ccncc2)CC1` [Compound Y27632], the “preferable amount in the culture medium” value in assay [1] fell in the range of 3 to 30 µM. The “Level of promoting proliferation” value in assay [2] is on record as “+”. For `CC[C@@]1(O)C[C@H](O[C@H]2C[C@H](N(C)C)[C@H](O[C@H]3C[C@H](O)[C@H](O[C@H]4CCC(=O)[C@H](C)O4)[C@H](C)O3)[C@H](C)O2)c2c(cc3c(c2O)C(=O)c2c(O)cccc2C3=O)[C@H]1C(=O)OC` [Aclarubicin], in assay [3], the “growth of organoids after drug treatment (photos)” value is “significantly inhibited” and the “inhibitory effect on the growth” value is “varied significantly”. On to `Oc1ccc(-c2nc(-c3ccncc3)c(-c3ccc(F)cc3)[nH]2)cc1` [SB202190], for which the “Level of promoting proliferation” value in assay [2] is “−”. With `CC(C)C[C@H](NC(=O)[C@H](Cc1ccccc1)NC(=O)c1cnccn1)B(O)O` [Bortezomib], in assay [3], the “growth of organoids after drug treatment (photos)” value is “significantly inhibited” and the “inhibitory effect on the growth” value was “strong inhibitory effects”. Turning to “basic fibroblast growth factor, bFGF: growth factor medium additive, supplier R&D”, the “Level of promoting proliferation” value in assay [2] is reported as “−”. In the case of `C[C@@H]1C[C@H]2[C@@H]3CCC4=CC(=O)C=C[C@]4(C)[C@@]3(F)[C@@H](O)C[C@]2(C)[C@@]1(O)C(=O)CO` [dexamethasone], in assay [1], the “preferable amount in the culture medium” value was in the range of 0.1 to 1 µM.

Turning to `Cc1c[nH]c(-c2cnc(NCCNc3ccc(C#N)cn3)nc2-c2ccc(Cl)cc2Cl)n1` [CHIR99021], in assay [2], the “Level of promoting proliferation” value was “−”. On the same count and under the same terms, in the case of “hepatocyte growth factor, HGF: growth factor medium additive, supplier R&D” it was “+”.

Consider `CN1C(=O)C(c2c(F)cccc2F)N(C)c2nc(Nc3ccc(S(N)(=O)=O)cc3)ncc21` (stereo not shown) [Compound 1, 4-((7-(2,6-Difluorophenyl)-5,8-dimethyl-6-oxo-5,6,7,8-tetrahydropteridin-2-yl)amino)benzsulfamide], for which, in assay [1], the “preferable amount in the culture medium” value is 2.5 to 10 µM. Moreover, the “Level of promoting proliferation” value in assay [2] is on record as “+”.

“insulin: medium additive, supplier Peprotech”: the “preferable amount in the culture medium” value in assay [1] was in the range of 1000 to 10000 ng/mL. In addition, the “Level of promoting proliferation” value in assay [2] is “+”.
